Laboratory results reported in US20240417435A1, “DEFENSIN-DERIVED PEPTIDE WITH ANTIBACTERIAL ACTIVITY ALSO AGAINST MULTI-ANTIBIOTIC-RESISTANT BACTERIA” (priority 2021, published 2024).

Tests used:
S. aureus ATCC 6538 = assay: SYTOX Green absorption assay (membrane permeabilisation); type: cell-based, Staphylococcus aureus
Experimental: (§1) The effect of peptide γ2 on the membrane integrity of S. aureus ATCC 6538 and P. aeruginosa ATCC 27853 was evaluated by measuring the extent of intracellular accumulation of SYTOX green (Juba M L, et al. Biochim Biophys Acta. 2015; 1848 (5): 1081-91). The cells were harvested halfway through the log phase, washed, and resuspended in 10 mM of phosphate buffer. The final density was adjusted to 5×10^7 CFU/mL. The cells were then treated with peptide γ2 (0.625, 1.25, 2.5, 12.5, 25 μM) in the presence of 200 nM SYTOX green (Invitrogen). The fluorescence increase of SYTOX green, a direct measurement of the degree of membrane permeabilisation, was monitored with a fluorescence spectrophotometer. The excitation and emission wavelengths used were 503 nm and 523 nm respectively. 5

P. aeruginosa ATCC 27853 = assay: as above; type: cell-based, Pseudomonas aeruginosa
Experimental: as §1

[1] = test system: S. aureus ATCC 6538 biofilm; assay: Biofilm formation and maturation, crystal violet; type: cell-based, Staphylococcus aureus; conditions: concentrations slightly higher than MIC, dose-dependent, maximum activity at 125 μM
Experimental: (§2) The biofilm formation test for S. aureus ATCC 6538 and P. aeruginosa ATCC 27853 was conducted in 96-well plates, as previously reported (Merritt J H, Kadouri D E, O'Toole G A. Growing and analyzing static biofilms. Curr Protoc Microbiol. 2005; Chapter 1: Unit 1B.1.)
(§3) Briefly, the bacteria from overnight cultures were diluted and grown to 0.5 McFarland. The bacteria were diluted 1:100 and plated in each well containing 100 μL of BHI broth. To evaluate the impact of peptide γ2 on biofilm formation, the medium was supplemented with various concentrations of peptide (2.5, 12.5, 25 and 125 μM) and incubated overnight. To evaluate biofilm maturation, the bacteria of the cultures grown overnight were diluted 1:1000, and 5 μL of said bacterial suspensions was added to each well, containing 100 μL of BHI broth, and left to grow overnight. The medium was then removed and replaced with fresh medium containing various peptide concentrations (2.5, 12.5 and 125 μM). At the end of incubation, the medium was removed; the biofilms were washed twice with PBS and stained with crystal violet (1%) for 30 minutes, then resuspended in 200 μL of ethanol. The negative controls were bacteria incubated with medium only. The positive controls were bacteria incubated with medium supplemented with 0.42 μM gentamicin.

[2] = test system: P. aeruginosa ATCC 27853 biofilm; assay: Biofilm formation and maturation, crystal violet; type: cell-based, Pseudomonas aeruginosa; conditions: concentrations slightly higher than MIC, dose-dependent, maximum activity at 125 μM
Experimental: as §2, §3

[3] = test system: S. aureus ATCC 6538 biofilm; assay: Biofilm formation by LIVE/DEAD imaging; type: cell-based, Staphylococcus aureus; conditions: 24 h static culture
Experimental: (§4) The formation of S. aureus ATCC 6538 and P. aeruginosa ATCC 27853 biofilms was also evaluated by imaging. The medium was then supplemented with various peptide concentrations (2.5, 12.5 and 25 μM) and incubated overnight, and the biofilms were stained with a FilmTracer LIVE/DEAD biofilm viability kit (Invitrogen) according to the manufacturer's instructions. The images were acquired with Cell Discoverer 7, Zeiss.

[4] = test system: P. aeruginosa ATCC 27853 biofilm; assay: Biofilm formation by LIVE/DEAD imaging; type: cell-based, Pseudomonas aeruginosa; conditions: 24 h static culture
Experimental: as §4

A549 cells [5] = assay: Cell migration assay in Boyden chambers; type: cell-based
Experimental: (§5) Cell migration assays were conducted as previously described (Bifulco K et al., Mol Cancer There 2013; 2:1981-93), using Boyden chambers and polyvinylpyrrolidone-free polycarbonate filters with 8 μm pores inserted between a lower and upper compartment. Briefly, the cell suspension (1×10^5 viable cells/mL of serum-free medium) was seeded in each upper chamber. The lower chambers were filled with DMEM only, DMEM containing 10 nM N-formyl-methionyl-leucylphenylalanine peptide (fMLF), as positive control, or increasing peptide γ2 concentration. Incubation was conducted for 4 h at 37° C. in air humidified with 5% CO2. At the end of the assay, the cells on the lower surface of the filter were fixed with ethanol and stained with haematoxylin, and 10 random fields/filter were counted with a 200× magnification. The extent of cell migration was expressed as a percentage of baseline cell migration evaluated in the absence of chemo-attractants, taken as 100% (CTRL).

HT-1080 cells [6] = assay: Cell migration assay in Boyden chambers; type: cell-based
Experimental: as §5

HUVEC endothelial cells = assay: Cell migration assay in Boyden chambers; type: cell-based
Experimental: as §5

[7] = test system: peripheral blood mononuclear cells (PBMC); assay: Cytokine secretion measurement (ProcartaPlex/Luminex); type: cell-based, human; conditions: PBMCs from healthy donors; 1.25 and 12.5 μM; 18 hours
Excerpt: Supernatants for cytokine evaluation were harvested from peripheral blood mononuclear cell cultures (PBMCs) and analysed with the Invitrogen ProcartaPlex bead-based immunoassay (Invitrogen, Thermo Fisher Scientific) using the Luminex instrument platform (Luminex 200, Luminex Corporation), according to the manufacturer's instructions. xPONENT 3.1 software (Luminex) was used for acquisition and analysis of the samples.

HT-1080 cells [8] = test system: HT-1080 cells
A549 cells [9] = test system: A549 cells

## Ac-CLPKRRQIGKSSTRGRKSCKK-NH2 (not fully specified (bridges); printed as Ac-CLPKRRQIGKSSTRGRKSCKK-NH2; also: oxidised (disulfide) or reduced form, both stated) [peptide γ2]
S. aureus ATCC 6538
  incubation time at which increased influx of SYTOX Green was evident: 40 min
S. aureus ATCC 6538; SYTOX Green, dose-dependent
  dose at which the peptide already effectively permeabilised the bacteria: 1.25 µM
P. aeruginosa ATCC 27853
  incubation time at which increased influx of SYTOX Green was seen: 15 min
P. aeruginosa ATCC 27853; SYTOX Green, dose-dependent
  dose at which the peptide already effectively permeabilised the bacteria: 1.25 µM
[1]
  biofilm formation: significantly inhibited
  biofilm maturation: significantly inhibited
[2]
  biofilm formation: significantly inhibited
  biofilm maturation: significantly inhibited
[3]
  smallest dose at which inhibition of biofilm formation was already evident: 2.5 µM
[4]
  smallest dose at which inhibition of biofilm formation was already evident: 2.5 µM
A549 cells [5]; 50 μM, 4 h
  directional migration, % of the baseline cell migration: 169%
A549 cells [5]; 100 μM versus 50 μM
  directional cell migration: did not further increase directional cell migration
A549 cells [5]; low concentrations
  chemotactic effect: slight chemotactic effect
HT-1080 cells [6]; 50 μM, 4 h
  directional migration, % of the baseline cell migration: 158%
HT-1080 cells [6]; 100 μM versus 50 μM
  directional cell migration: did not further increase directional cell migration
HT-1080 cells [6]; low concentrations
  chemotactic effect: slight chemotactic effect
HUVEC endothelial cells; HUVEC, 100 μM versus 50 μM
  directional cell migration: did not further increase directional cell migration
HUVEC endothelial cells; HUVEC, low concentrations
  chemotactic effect: slight chemotactic effect
HUVEC endothelial cells; endothelial cells (HUVEC), 50 μM, 4 h
  directional migration, % of the baseline cell migration: 156%
[7]
  IL-1 secretion: up-regulated
  IL-6 secretion: up-regulated
  IL-9 secretion: up-regulated
  INF-γ secretion: up-regulated
HT-1080 cells [8]
  cell viability: viability remained high
A549 cells [9]
  reduction of cell viability: about 20%
HeLa cells
  cell viability: viability remained high
HeLa cells; human, HeLa cells, 6 h, 40 µM
  cell viability compared with the control cells: 97%
HUVEC cells
  reduction of cell viability: about 20%
Human fibroblasts (HF)
  reduction of cell viability: about 20%
